# In PMC11351036, “Biochemical characterization of a SusD-like protein involved in β-1,3-glucan utilization by an uncultured cow rumen Bacteroides” (mSphere, 2024):
# Molecular target: T1, 41O1_SusD-like (uncultured Bacteroides sp., UniProt Z9V4V4YR65)
# T1 construct: mature protein without predicted lipoprotein signal peptide, N-terminal 6-His tag (pET-28a(+)), E. coli BL21(DE3), codon-optimized gene, 57 kDa, monomer fraction used
# T1 sequence (Z9V4V4YR65 22-505): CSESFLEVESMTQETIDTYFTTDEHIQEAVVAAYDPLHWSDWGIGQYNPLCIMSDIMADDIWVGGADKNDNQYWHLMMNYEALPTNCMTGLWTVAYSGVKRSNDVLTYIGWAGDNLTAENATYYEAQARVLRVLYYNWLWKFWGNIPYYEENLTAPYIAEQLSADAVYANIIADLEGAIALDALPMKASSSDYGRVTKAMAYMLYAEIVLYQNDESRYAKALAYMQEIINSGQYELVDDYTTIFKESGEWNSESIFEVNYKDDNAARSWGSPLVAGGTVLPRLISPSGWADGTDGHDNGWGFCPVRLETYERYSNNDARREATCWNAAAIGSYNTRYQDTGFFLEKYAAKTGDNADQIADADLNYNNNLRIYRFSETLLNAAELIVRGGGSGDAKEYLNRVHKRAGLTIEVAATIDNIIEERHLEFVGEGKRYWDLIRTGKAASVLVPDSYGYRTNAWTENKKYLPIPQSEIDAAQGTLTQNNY
# Assay: thermal shift, Tycho NT.[…] intrinsic fluorescence
# Type: binding
# Conditions: 0.5% (w/v) ligand, 10 µM protein, 20 mM Tris-HCl, 150 mM NaCl, pH 7.4
row,Structure (SMILES),∆T°C [°C]
1,OC[C@H]1O[C@@H](O[C@H]2[C@H](O)[C@@H](O)[C@H](O[C@H]3[C@H](O)[C@@H](O)C(O)O[C@@H]3CO)O[C@@H]2CO)[C@H](O)[C@@H](O)[C@@H]1O (some centres unmarked) [Cellotriose],1.2
2,OC[C@H]1O[C@@H](O[C@@H]2[C@@H](O)[C@H](O[C@H]3[C@H](O)[C@@H](CO)OC(O)[C@@H]3O)O[C@H](CO)[C@H]2O)[C@H](O)[C@@H](O)[C@@H]1O (some centres unmarked) [Laminaritriose],4.7
